Laboratory results published in US9512139B2, “Conformationally constrained, fully synthetic macrocyclic compounds” (POLYPHOR AG, priority 2009, dated 2016).

Key:
[1] = Metabolic stability assay, rat microsomes (values in parentheses); assay type: in vitro ADME; settings: value in parentheses
in vitro [2] = assay type: in vitro ADME, human
[3] = Metabolic stability assay, CD-1 mouse microsomes; assay type: in vitro ADME; settings: for half-life at 10 µM: both sexes
in vitro [4] = assay type: in vitro ADME, mouse
[5] = Metabolic stability assay, human microsomes; assay type: in vitro ADME; settings: for half-life at 10 µM: both sexes
[6] = from CN(CCC[C@H](NC(=O)OCc1ccccc1)C(=O)O)C(=O)c1cc(F)ccc1OC[C@@H]1C[C@@H](N)CN1C(=O)OC(C)(C)C; amide bond; FDPP; DMF; 1.0 mM
[7] = both, CD-1, mouse, microsomes, 10 µM
[8] = both, CD-1, mouse, microsomes, 1 h, 10 µM
[9] = both, CD-1, mouse, plasma, 10 µM
[10] = both, CD-1, mouse, plasma, 4 h, 10 µM
[11] = both, human, microsomes, 1 h, 10 µM
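For Plasma Stability 240 min mouse [% remain.] in this document: sodium citrate stabilized mouse plasma, parent compound quantified by HPLC/MS/MS relative to its peak area at time zero, run in triplicate.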
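For Plasma Stability T½ [min] mouse in this document: sodium citrate stabilized mouse plasma, parent compound quantified by HPLC/MS/MS relative to its peak area at time zero, run in triplicate.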

Row | Structure (SMILES) | Metabolic Stability 60 min (rat) [% remain.] [1] [% remain.] | Metabolic Stability T½ [min] (rat) [1] | Plasma Stability T½ [min] hum (in vitro [2]; human, plasma, 10 µM) [min] | Plasma Stability 240 min hum [% remain.] (in vitro [2]; human, plasma, 4 h, 10 µM) | Metabolic Stability T½ [min] mouse [3, 7] [min] | Metabolic Stability 60 min mouse [% remain.] [3, 8] [% remain.] | Plasma Stability T½ [min] mouse (in vitro [4]; [9]) [min] | Plasma Stability 240 min mouse [% remain.] (in vitro [4]; [10]) | Metabolic Stability T½ [min] hum ([5]; both, human, microsomes, 10 µM) [min] | Metabolic Stability 60 min hum [% remain.] [5, 11] [% remain.] | half-life at 10 µM ([3]; CD-1, mouse, microsomes) [h] | half-life at 10 µM ([5]; human, microsomes) [h] | also measured
1 | CN1CCC[C@H](NC(=O)Cc2ccccc2)C(=O)N2C[C@@H](O)C[C@H]2COc2cccc(c2)C1=O [Ex. 574, N-[(4S,6S,10S)-6-hydroxy-14-methyl-9,15-dioxo-2-oxa-8,14-diazatricyclo[14.3.1.0^4,8]icosa-1(20),16,18-trien-10-yl]-2-phenylacetamide] | 92 | 60 (60) min | > 240 | 91 | > 60 | 93 | > 240 | 95 | > 60 | 94 | – | – | –
2 | CN1CCC[C@H](NCC(C)(C)C)C(=O)N2C[C@@H](Oc3ccccc3)C[C@H]2COc2cccc(c2)C1=O [Ex. 563, (4S,6S,10S)-14-methyl-10-(neopentylamino)-6-phenoxy-2-oxa-8,14-diazatricyclo[14.3.1.0^4,8]icosa-1(20),16,18-triene-9,15-dione] | 32 | – | > 240 | 88 | – | 4 | > 240 | 81 | – | 1 | 0.2 | 0.133 | half-life at 10 µM ([1]; read-out: Metabolic Stability T½ [min] (rat)): 31 min
3 | CN1CCC[C@H](NC(=O)Cc2ccccc2)C(=O)N[C@H]2CN[C@H](COc3ccc(F)cc3C1=O)C2 [Ex. 406, N-[(1S,15S,18R)-7-fluoro-11-methyl-10,16-dioxo-3-oxa-11,17,20-triazatricyclo[16.2.1.0^4,9]henicosa-4,6,8-trien-15-yl]-2-phenylacetamide] | 96 | 60 (60) min | > 240 | 75 | > 60 | 94 | > 240 | 89 | > 60 | 77 | – | – | –
4 | CN1CCC[C@H](N)C(=O)N2C[C@@H](OCc3ccc(-c4ccccc4)cc3)C[C@H]2COc2cccc(c2)C1=O [Ex. 570, (4S,65,10S)-10-amino-6-([1,1′-biphenyl]-4-ylmethoxy)-14-methyl-2-oxa-8,14-diazatricyclo[14.3.1.0^4,8]icosa-1(20),16,18-triene-9,15-dione] | 76 | 60 (60) min | – | – | – | – | – | – | – | – | – | – | Plasma Stability 240 min hum [% remain.] (in vitro [2]; human plasma, 240 min): 92 % remain.; Plasma Stability T½ [min] hum (in vitro [2]; human, plasma): > 240 min; Metabolic Stability 60 min mouse [% remain.] ([3]; mouse microsomes, 60 min): 69 % remain.; Metabolic Stability T½ [min] mouse ([3]; mouse, microsomes): > 60 min; Plasma Stability 240 min mouse [% remain.] (in vitro [4]; mouse plasma, 240 min): 100 % remain.; Plasma Stability T½ [min] mouse (in vitro [4]; mouse, plasma): > 240 min; Metabolic Stability 60 min hum [% remain.] ([5]; human microsomes, 60 min): 20 % remain.; Metabolic Stability T½ [min] hum ([5]; human, microsomes): 13 min
5 | CO[C@H]1C[C@H]2COc3cccc(c3)C(=O)N(C)CCC[C@H](NC(=O)CC(C)(C)C)C(=O)N2C1 [Ex. 572, N-[(4S,6S,10S)-6-methoxy-14-methyl-9,15-dioxo-2-oxa-8,14-diazatricyclo[14.3.1.0^4,8]icosa-1(20),16,18-trien-10-yl]-3,3-dimethylbutanamide] | 92 | 60 (60) min | > 240 | 85 | > 60 | 54 | > 240 | 100 | – | 49 | – | 0.9 | –
6 | CN1CCC[C@H](NC(=O)OCc2ccccc2)C(=O)N[C@@H]2C[C@@H](COc3ccc(F)cc3C1=O)N(C(=O)OC(C)(C)C)C2 [Ex. 403, tert-butyl (1S,15S,18R)-15-{[(benzyloxy)carbonyl]amino}-7-fluoro-11-methyl-10,16-dioxo-3-oxa-11,17,20-triazatricyclo[16.2.1.0^4,9]henicosa-4,6,8-triene-20-carboxylate] | – | – | > 240 | 100 | – | 55 | > 240 | 65 | – | 37 | 0.95 | 0.6 | ring closure, yield of all isomers [6]: 73%
